These results are taken from patent US20240360194A1, “New Peptides as Potent and Selective GIP Receptor Agonists” (Sanofi, priority 2021, published 2024).

Series [1] concerns the target T1, human GIP receptor (hGIPR) (Homo sapiens, UniProt P48546).
T1 sequence (P48546 22-466): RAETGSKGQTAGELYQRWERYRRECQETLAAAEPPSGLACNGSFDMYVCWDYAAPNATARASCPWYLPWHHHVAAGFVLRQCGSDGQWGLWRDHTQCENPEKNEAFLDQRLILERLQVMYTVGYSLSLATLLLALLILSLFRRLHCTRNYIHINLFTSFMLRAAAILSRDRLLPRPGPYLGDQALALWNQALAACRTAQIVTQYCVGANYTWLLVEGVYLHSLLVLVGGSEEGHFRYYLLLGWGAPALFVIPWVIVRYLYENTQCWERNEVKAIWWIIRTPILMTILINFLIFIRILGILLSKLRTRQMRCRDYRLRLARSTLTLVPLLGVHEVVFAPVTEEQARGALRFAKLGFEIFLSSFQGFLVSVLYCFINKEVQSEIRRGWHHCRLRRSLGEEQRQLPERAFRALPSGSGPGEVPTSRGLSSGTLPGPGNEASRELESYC
Kind of series: In vitro cellular cAMP assay for GIP receptor efficacy (HEK-293 cell line over-expressing receptor). The class given is cell-based. Conditions: EC50 hGIPR 0.1% BSA, HEK-293, 0.1% BSA. In general terms: cAMP levels reflect the balance of adenylyl cyclase and phosphodiesterase activity.

Series [2] can be described thus: Solubility assessment (UHPLC-UV of supernatant, target 10 mg/ml). Type of series: physicochemical. Conditions: pH 7.4, Soluble amount. The procedure, abridged:
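Peptides at 10 mg/ml (purity-corrected) in 100 mM phosphate pH 7.4, optionally with 2.7 mg/ml m-cresol; gentle agitation 1 h, then 5° C. overnight (24 h). Supernatant after 15 min centrifugation at 2500 RCF quantified by UHPLC-UV, with sequence-based extinction coefficients.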

For series [3], the target named is T1, human GIP receptor (hGIPR). Kind of series: Binding assay, displacement of [125I]GIP from HEK-293 membranes over-expressing GIPR (SPA). The note with it: [125I]GIP displacement. Put shortly:
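Membranes from HEK-293 cells over-expressing human GIPR or GLP-1R, isolated by homogenising, sonicating and ultracentrifuging at 100000×g into HEPES/EDTA/NaCl buffer with protease inhibitors, were used for binding.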
(Loss of bound radioactivity is the signal in a displacement assay; it reports binding, not function.)

The target of series [4] is T2, human GIP receptor (Homo sapiens, UniProt P48546).
T2 construct: human adipocytes endogenously expressing the human GIP receptor; host or cells: human preadipocytes (Lonza) differentiated to adipocytes
T2 sequence (P48546 22-466): T1 sequence (P48546 22-466)
Briefly: In vitro cellular cAMP assay for GIP receptor efficacy (human adipocytes). Type of series: cell-based. The procedure, abridged: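 cAMP is read by HTRF (665/620 nm ratio, 1 h after reagents in lysis buffer) following 30 min compound exposure at room temperature. Cells are human preadipocyte-derived adipocytes, differentiated 6 days with insulin, dexamethasone, IBMX (200 μM), PPARγ agonist and L-thyroxine, seeded 5000 per well.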

Series [5] addresses human GLP-1 receptor (hGLP-1R) (Homo sapiens, UniProt P43220). Briefly: In vitro cellular cAMP assay for GLP-1 receptor efficacy (HEK-293 cell line over-expressing receptor). The class given is cell-based. Conditions: HEK-293, 0.1% BSA.

Converted amounts (≈) assume the structure as drawn. Numbered stars: 1 amine (or outer) side, 2 acyl side, 3 side chain; on linkers, the order of the positions; unused ones are H or OH. Square brackets hold non-standard residues; d marks the D form. Side chains are listed from the residue outwards. Peptide text beside a SMILES is read from it. * marks the point of attachment. C18 diacid = O=C(O)CCCCCCCCCCCCCCCCC(=O)*; γGlu = O=C(O)[C@H](CCC(=O)[*:2])N[*:1]; αMeF = C[C@](N)(Cc1ccccc1)C(=O)O; αMeV = CC(C)[C@](C)(N)C(=O)O; AEEA = NCCOCCOCC(=O)O; Aib = CC(C)(N)C(=O)O

Sequence of human GLP-1 receptor (hGLP-1R) (P43220 24-463): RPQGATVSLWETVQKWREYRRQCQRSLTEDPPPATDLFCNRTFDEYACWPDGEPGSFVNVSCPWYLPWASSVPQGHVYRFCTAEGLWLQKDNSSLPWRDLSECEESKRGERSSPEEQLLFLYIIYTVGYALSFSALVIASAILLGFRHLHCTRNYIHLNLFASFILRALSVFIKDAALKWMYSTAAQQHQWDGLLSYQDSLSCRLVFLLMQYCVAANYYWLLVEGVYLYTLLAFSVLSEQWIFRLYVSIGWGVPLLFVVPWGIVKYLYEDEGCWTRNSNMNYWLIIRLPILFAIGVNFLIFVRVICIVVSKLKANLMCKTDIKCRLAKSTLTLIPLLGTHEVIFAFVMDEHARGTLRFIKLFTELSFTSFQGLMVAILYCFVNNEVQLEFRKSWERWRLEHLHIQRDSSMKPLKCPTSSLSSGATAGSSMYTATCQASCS

Compound `CC[C@H](C)[C@H](NC(=O)[C@H](Cc1ccccc1)NC(=O)[C@H](CCC(=O)O)NC(=O)[C@H](CCC(=O)O)NC(=O)[C@H](CCC(N)=O)NC(=O)[C@H](Cc1c[nH]cn1)NC(=O)[C@@H](NC(=O)[C@H](CCCNC(=N)N)NC(=O)[C@H](CC(=O)O)NC(=O)[C@H](CCCCNC(=O)COCCOCCNC(=O)COCCOCCNC(=O)CC[C@H](NC(=O)CCCCCCCCCCCCCCCCC(=O)O)C(=O)O)NC(=O)C(C)(C)NC(=O)[C@@H](NC(=O)[C@H](CO)NC(=O)[C@H](CC(C)C)NC(=O)[C@H](CC(=O)O)NC(=O)[C@H](CO)NC(=O)[C@@H](NC(=O)[C@@](C)(NC(=O)[C@@H](NC(=O)CNC(=O)[C@H](CCC(=O)O)NC(=O)C(C)(C)NC(=O)[C@@H](N)Cc1ccc(O)cc1)[C@@H](C)O)C(C)C)[C@@H](C)CC)[C@@H](C)CC)[C@@H](C)CC)C(=O)N[C@@H](CCC(=O)O)C(=O)N[C@@H](Cc1c[nH]c2ccccc12)C(=O)N[C@@H](CC(C)C)C(=O)N[C@@H](CC(C)C)C(=O)N[C@@H](C)C(=O)N[C@@H](CCC(N)=O)C(=O)NCC(=O)N1CCC[C@H]1C(=O)N[C@@H](CO)C(=O)N[C@@H](CO)C(=O)NCC(=O)N[C@@H](C)C(=O)N1CCC[C@H]1C(=O)N1CCC[C@H]1C(=O)N1CCC[C@H]1C(=O)N[C@@H](CO)C(N)=O` [SEQ ID NO: 26, H2N-Y-Aib-E-G-T-Mva-I-S-D-L-S-I-Aib-K[{AEEA}2-gGlu-C18OH]-DRIHQEEFIEWLLAQGPSSGAPPPS-NH2] (H-Y[Aib]EGT[αMeV]ISDLSI[Aib]K([AEEA-AEEA-γGlu-C18 diacid])DRIHQEEFIEWLLAQGPSSGAPPPS-NH2) registered an EC50 in series [1] of 0.0602 nM.

`CC[C@H](C)[C@H](NC(=O)[C@H](Cc1ccccc1)NC(=O)[C@H](CCC(=O)O)NC(=O)[C@H](CCC(=O)O)NC(=O)[C@H](CCC(N)=O)NC(=O)[C@H](Cc1c[nH]cn1)NC(=O)[C@@H](NC(=O)[C@H](CCCNC(=N)N)NC(=O)[C@H](CC(=O)O)NC(=O)[C@H](CCCCNC(=O)COCCOCCNC(=O)COCCOCCNC(=O)CC[C@H](NC(=O)CCCCCCCCCCCCCCCCC(=O)O)C(=O)O)NC(=O)C(C)(C)NC(=O)[C@@H](NC(=O)[C@H](CO)NC(=O)[C@H](CC(C)C)NC(=O)[C@H](CC(=O)O)NC(=O)[C@H](CO)NC(=O)[C@@H](NC(=O)[C@H](Cc1ccccc1)NC(=O)[C@@H](NC(=O)CNC(=O)[C@H](CCC(=O)O)NC(=O)C(C)(C)NC(=O)[C@@H](N)Cc1ccc(O)cc1)[C@@H](C)O)[C@@H](C)CC)[C@@H](C)CC)[C@@H](C)CC)C(=O)N[C@@H](CCC(=O)O)C(=O)N[C@@H](Cc1c[nH]c2ccccc12)C(=O)N[C@@H](CC(C)C)C(=O)N[C@@H](CC(C)C)C(=O)N[C@@H](C)C(=O)N[C@@H](CCC(N)=O)C(=O)N[C@@H](CCC(=O)O)C(=O)NCC(=O)O` [SEQ ID NO: 14, H2N-Y-Aib-E-G-T-F-I-S-D-L-S-I-Aib-K[{AEEA}2-gGlu-C18OH]-D-R-I-H-Q-E-E-F-I-E-W-L-L-A-Q-E-G-OH] (H-Y[Aib]EGTFISDLSI[Aib]K([AEEA-AEEA-γGlu-C18 diacid])DRIHQEEFIEWLLAQEG-OH): the EC50 in series [1] came out at 0.0757 nM.

Regarding `CC[C@H](C)[C@H](NC(=O)[C@H](CCCNC(=N)N)NC(=O)[C@H](CC(=O)O)NC(=O)[C@H](CCCCNC(=O)COCCOCCNC(=O)COCCOCCNC(=O)CC[C@H](NC(=O)CCCCCCCCCCCCCCCCC(=O)O)C(=O)O)NC(=O)C(C)(C)NC(=O)[C@@H](NC(=O)[C@H](CO)NC(=O)[C@H](CC(C)C)NC(=O)[C@H](CC(=O)O)NC(=O)[C@H](CO)NC(=O)[C@@H](NC(=O)[C@@](C)(CC)NC(=O)[C@@H](NC(=O)CNC(=O)[C@H](CCC(=O)O)NC(=O)C(C)(C)NC(=O)[C@@H](N)Cc1ccc(O)cc1)[C@@H](C)O)[C@@H](C)CC)[C@@H](C)CC)C(=O)N[C@@H](Cc1c[nH]cn1)C(=O)N[C@@H](CCC(N)=O)C(=O)NC(C)(C)C(=O)N[C@@H](CCC(=O)O)C(=O)N[C@@](C)(Cc1ccccc1)C(=O)N[C@H](C(=O)N[C@@H](CCC(=O)O)C(=O)N[C@@H](Cc1c[nH]c2ccccc12)C(=O)N[C@@H](CC(C)C)C(=O)N[C@@H](CC(C)C)C(=O)N[C@@H](C)C(=O)N[C@@H](CCC(N)=O)C(=O)N[C@@H](CCCNC(=N)N)C(=O)NCC(N)=O)[C@@H](C)CC` [SEQ ID NO: 18, H2N-Y-Aib-E-G-T-Iva-I-S-D-L-S-I-Aib-K[{AEEA}2-gGlu-C18OH]-D-R-I-H-Q-Aib-E-Mph-I-E-W-L-L-A-Q-R-G-NH2], in series [1], the midpoint of the response, the EC50, lay at 0.0179 nM.

Regarding `CC[C@H](C)[C@H](NC(=O)[C@H](CCCNC(=N)N)NC(=O)[C@H](CC(=O)O)NC(=O)[C@H](CCCCNC(=O)COCCOCCNC(=O)COCCOCCNC(=O)CC[C@H](NC(=O)CCCCCCCCCCCCCCCCC(=O)O)C(=O)O)NC(=O)C(C)(C)NC(=O)[C@@H](NC(=O)[C@H](CO)NC(=O)[C@H](CC(C)C)NC(=O)[C@H](CC(=O)O)NC(=O)[C@H](CO)NC(=O)[C@@H](NC(=O)[C@H](Cc1ccccc1)NC(=O)[C@@H](NC(=O)CNC(=O)[C@H](CCC(=O)O)NC(=O)C(C)(C)NC(=O)[C@@H](N)Cc1ccc(O)cc1)[C@@H](C)O)[C@@H](C)CC)[C@@H](C)CC)C(=O)N[C@@H](Cc1c[nH]cn1)C(=O)N[C@@H](CCC(N)=O)C(=O)N[C@@H](CCC(=O)O)C(=O)N[C@@H](CCC(=O)O)C(=O)N[C@@](C)(Cc1ccccc1)C(=O)N[C@H](C(=O)N[C@@H](CCC(=O)O)C(=O)N[C@@H](Cc1c[nH]c2ccccc12)C(=O)N[C@@H](CC(C)C)C(=O)N[C@@H](CC(C)C)C(=O)N[C@@H](C)C(=O)N[C@@H](CCC(N)=O)C(=O)NCC(=O)N1CCC[C@H]1C(=O)N[C@@H](CO)C(=O)N[C@@H](CO)C(=O)NCC(=O)N[C@@H](C)C(=O)N1CCC[C@H]1C(=O)N1CCC[C@H]1C(=O)N1CCC[C@H]1C(=O)N[C@@H](CO)C(N)=O)[C@@H](C)CC` [SEQ ID NO: 32, H2N-Y-Aib-E-G-T-F-I-S-D-L-S-I-Aib-K[{AEEA}2-gGlu-C18OH]-D-R-I-H-Q-E-E-Mph-I-E-W-L-L-A-Q-G-P-S-S-G-A-P-P-P-S-NH2] (H-Y[Aib]EGTFISDLSI[Aib]K([AEEA-AEEA-γGlu-C18 diacid])DRIHQEE[αMeF]IEWLLAQGPSSGAPPPS-NH2), the concentration in solution in series [2] (solubility at 24 h) came to 8200 µg/mL (≈ 1630 µM). In series [3], the IC50 amounted to 0.9 nM. The EC50 in series [4] (read-out: hGIPR EC50) was 0.6 nM; in series [5], over 10 nM. For the same compound, the Emax in series [4] (read-out: hGIPR Emax) was 109%.

What is called EC50 is the midpoint of the concentration-response curve. What is called solubility is how much of the substance goes into solution per volume. A low value points to little dissolved substance. In general, IC50 refers to the concentration that inhibits the measured activity by half. High values mean lower potency, low ones higher potency. Broadly, the Emax is the size of the effect at its maximum, as opposed to the concentration needed.
